Earlier results, collected in patent US6359007B1 (ChronoRX, LLC, priority 1999, dated 2002).
Read-outs that look alike come from different tables or passages of the source.

What was measured:
[1] = stomach in the "fed" state
[2] = in vivo
[3] = per meal, curvilinear falloff
[4] = not given; remark: listed apart in the source

N=C(N)NCCC[C@H](N)C(=O)O [L-arginine]
gastrointestinal uptake of dietary arginine [1]: about 38%

O=C1O[C@H]([C@@H](O)CO)C(O)=C1O [AA, ascorbic acid]
mean steady state plasma concentration (daily oral dose 200 mg): 12 mg/L | mean steady state plasma concentration (daily oral dose 2500 mg): 15 mg/L

[Cu+2] [Cu^+2, Copper]
Absorption (via carrier-mediated transport) [2]: 30-40% | absorption of ingested Cu^+2 [2]: 30-40%

[Mg+2] [Mg^+2, Magnesium]
maximum bolus absorption [3]: 8 meq

[Zn+2] [Zn^+2, Zinc]
increase of mean plasma Zn^+2 above pre-load levels ([4]; 11-fold increase in Zn^+2 intake): About 37% | Zn^+2 absorption ([4]; in vivo): 40% to 86 | ingested Zn^+2 entering the plasma ([4]; in vivo): About 37% | time by which gastrointestinal absorption is essentially complete ([4]; in vivo): ≤ 4 h
